One molecule from paper doi:10.1101/2025.03.14.643404, “A Bivalent Molecular Glue Linking Lysine Acetyltransferases to Oncogene-induced Cell Death” (bioRxiv, 2025) can be followed below.

Assay [1] relates to SUDHL5 cells. Kind of assay: TUNEL and total DNA content co-staining of SUDHL5. It counts as cell-based, human. The conditions noted are these: SUDHL5, 10 nM. On the procedure: 1 million SUDHL5 cells were plated in 6 mL of media in 6-well plates and treated with compound for indicated timepoints and doses. 1.2 million total cells were counted, washed in PBS, fixed in 4% paraformaldehyde/PBS at a concentration of 10M/mL for 15 minutes at room temperature in the dark, washed in PBS, and stored in 70% ethanol at −20°C until ready for processing (at least 24 hours). DNA breaks in fixed cells were labeled with bromolated deoxyuridine (Br-dUTP or BrdU) by incubation with deoxynucleotidyl transferase (TdT) for 60 min at 37°C, washed, and stained with FITC-labeled anti-BrdU antibodies for 30 min at room temperature in the dark (BD 556405). Cells were resuspended in 1% BSA/PBS with 1:100 RNaseA (Invitrogen 12091021) and co-stained with 7-AAD for 30 min at room temperature in the dark (BD 559925). The suspension was gently agitated by shaking and analyzed by flow cytometry within 1 hour (BD Accuri).

For assay [2], the system named is BBC3/PUMA. Kind of assay: Western blot of BBC3/PUMA in SUDHL5. Conditions: SUDHL5, 48 hours. It counts as cell-based, human. On the procedure:
(§1) Cells were plated at 1M/mL and treated with drug at indicated timepoints and doses. Cells were harvested on ice in RIPA buffer (50mM Tris-HCl pH 8, 150mM NaCl, 1% NP-40, 0.1% DOC, 1% SDS, protease inhibitor cocktail (~20 mg/ml pepstatin, aprotinin, and leupeptin), 1mM DTT) and 1:200 benzonase (Sigma E1014) was added and incubated for 20 mins. After 10 min centrifugation at 14,000g and 4 °C, the supernatant was collected and protein concentration was measured by Bradford. SDS-PAGE analysis was carried out in either 4–12% or 12% Bis-Tris PAGE gels (Thermo NW04120 and NW04127). Antibodies used for immunoblots were: BCL6 (1:1000 v:v, Cell Signaling D65C10), p300 (1:250, Santa Cruz F-4 sc-48343), CBP (1:1000, Cell Signaling D6C5), c-MYC (1:1000, Cell Signaling D84C12), Caspase-3 (1:1000, Cell Signaling 9662), GAPDH (1:2000, Santa Cruz 6C5 sc-32233), BBC3/PUMA (1:1000, Cell Signaling E2P7G), FOXO3 (1:1000, Cell Signaling 75D8), H3K27ac (1:1000, abcam ab4729), H2BK20ac (1:1000, Cell Signaling D709W), H3 (1:10,000, Cell Signaling 1B1B2), H2B (1:10,000, Cell Signaling D2H6), p27/CDKN1B (1:1000, Cell Signaling D69C12), and TP53 (1:1000, Santa Cruz DO-1). ImageStudio (Licor) was used for blot imaging and quantification.

In assay [3] the target is T1, BCL6 (Homo sapiens, UniProt P41182+Q09472+Q92793).
T1 construct: endogenous in cells; host or cells: SUDHL5
T1 sequence (Q09472 2-2414 limits assumed, other chains not shown): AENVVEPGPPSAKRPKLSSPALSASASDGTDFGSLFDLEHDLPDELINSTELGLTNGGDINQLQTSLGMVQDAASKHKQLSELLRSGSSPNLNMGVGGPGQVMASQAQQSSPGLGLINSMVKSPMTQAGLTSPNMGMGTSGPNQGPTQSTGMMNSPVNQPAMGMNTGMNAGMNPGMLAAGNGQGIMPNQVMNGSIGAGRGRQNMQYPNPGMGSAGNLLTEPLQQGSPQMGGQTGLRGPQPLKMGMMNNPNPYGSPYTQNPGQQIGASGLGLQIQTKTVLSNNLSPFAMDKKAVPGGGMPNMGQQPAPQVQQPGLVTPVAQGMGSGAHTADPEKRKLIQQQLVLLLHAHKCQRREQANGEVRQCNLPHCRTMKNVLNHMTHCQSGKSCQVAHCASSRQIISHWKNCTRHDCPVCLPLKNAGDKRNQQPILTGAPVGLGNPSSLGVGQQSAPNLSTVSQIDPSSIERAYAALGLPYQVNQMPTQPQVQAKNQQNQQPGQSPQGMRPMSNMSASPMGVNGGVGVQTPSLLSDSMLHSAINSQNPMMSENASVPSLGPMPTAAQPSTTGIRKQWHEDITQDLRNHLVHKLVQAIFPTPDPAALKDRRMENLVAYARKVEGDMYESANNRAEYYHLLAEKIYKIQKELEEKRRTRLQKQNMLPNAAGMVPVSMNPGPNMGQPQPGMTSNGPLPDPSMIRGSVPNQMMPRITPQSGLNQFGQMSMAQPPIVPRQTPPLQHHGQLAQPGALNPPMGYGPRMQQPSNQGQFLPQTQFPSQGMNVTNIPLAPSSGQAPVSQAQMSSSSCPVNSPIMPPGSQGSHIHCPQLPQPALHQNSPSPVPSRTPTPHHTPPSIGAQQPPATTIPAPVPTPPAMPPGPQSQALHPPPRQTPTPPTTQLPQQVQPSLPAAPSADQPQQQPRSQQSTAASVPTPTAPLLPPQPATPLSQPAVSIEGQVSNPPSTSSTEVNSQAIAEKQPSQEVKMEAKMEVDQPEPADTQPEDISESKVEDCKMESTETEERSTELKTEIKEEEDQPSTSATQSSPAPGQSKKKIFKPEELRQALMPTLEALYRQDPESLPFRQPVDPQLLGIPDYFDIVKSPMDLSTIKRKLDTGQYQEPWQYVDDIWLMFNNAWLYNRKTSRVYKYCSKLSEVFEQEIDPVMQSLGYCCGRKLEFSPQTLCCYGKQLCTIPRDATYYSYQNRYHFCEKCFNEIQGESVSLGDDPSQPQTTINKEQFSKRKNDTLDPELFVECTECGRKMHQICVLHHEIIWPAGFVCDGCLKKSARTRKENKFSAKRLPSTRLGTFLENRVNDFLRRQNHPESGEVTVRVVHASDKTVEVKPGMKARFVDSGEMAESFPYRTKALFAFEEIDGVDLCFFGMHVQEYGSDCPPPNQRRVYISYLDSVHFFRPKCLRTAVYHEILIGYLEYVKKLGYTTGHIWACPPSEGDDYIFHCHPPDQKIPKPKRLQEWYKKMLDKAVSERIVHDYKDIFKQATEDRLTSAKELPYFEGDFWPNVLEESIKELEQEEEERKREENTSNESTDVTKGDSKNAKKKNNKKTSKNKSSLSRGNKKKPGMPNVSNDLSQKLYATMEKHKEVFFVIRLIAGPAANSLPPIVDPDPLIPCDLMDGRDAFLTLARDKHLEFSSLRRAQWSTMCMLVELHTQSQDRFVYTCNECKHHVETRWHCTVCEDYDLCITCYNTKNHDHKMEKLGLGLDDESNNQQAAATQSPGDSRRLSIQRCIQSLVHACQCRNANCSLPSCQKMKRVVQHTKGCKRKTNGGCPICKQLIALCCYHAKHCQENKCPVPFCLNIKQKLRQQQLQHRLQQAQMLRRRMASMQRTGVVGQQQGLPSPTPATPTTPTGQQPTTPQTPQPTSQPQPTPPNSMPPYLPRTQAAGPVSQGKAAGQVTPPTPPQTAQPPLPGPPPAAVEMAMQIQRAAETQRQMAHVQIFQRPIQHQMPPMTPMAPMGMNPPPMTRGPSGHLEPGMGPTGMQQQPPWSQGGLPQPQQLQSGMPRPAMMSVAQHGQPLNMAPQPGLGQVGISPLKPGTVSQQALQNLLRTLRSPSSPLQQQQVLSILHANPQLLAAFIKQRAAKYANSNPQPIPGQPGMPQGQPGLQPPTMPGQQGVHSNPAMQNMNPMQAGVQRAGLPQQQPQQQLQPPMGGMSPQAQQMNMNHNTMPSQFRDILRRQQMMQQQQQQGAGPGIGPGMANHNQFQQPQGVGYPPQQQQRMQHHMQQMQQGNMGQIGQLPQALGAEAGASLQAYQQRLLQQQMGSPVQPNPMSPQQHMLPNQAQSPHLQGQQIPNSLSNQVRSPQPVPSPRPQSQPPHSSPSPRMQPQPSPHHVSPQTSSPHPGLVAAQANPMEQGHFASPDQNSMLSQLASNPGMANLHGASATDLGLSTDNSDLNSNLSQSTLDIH
T1 sequence (Q92793 2-2442 limits assumed, other chains not shown): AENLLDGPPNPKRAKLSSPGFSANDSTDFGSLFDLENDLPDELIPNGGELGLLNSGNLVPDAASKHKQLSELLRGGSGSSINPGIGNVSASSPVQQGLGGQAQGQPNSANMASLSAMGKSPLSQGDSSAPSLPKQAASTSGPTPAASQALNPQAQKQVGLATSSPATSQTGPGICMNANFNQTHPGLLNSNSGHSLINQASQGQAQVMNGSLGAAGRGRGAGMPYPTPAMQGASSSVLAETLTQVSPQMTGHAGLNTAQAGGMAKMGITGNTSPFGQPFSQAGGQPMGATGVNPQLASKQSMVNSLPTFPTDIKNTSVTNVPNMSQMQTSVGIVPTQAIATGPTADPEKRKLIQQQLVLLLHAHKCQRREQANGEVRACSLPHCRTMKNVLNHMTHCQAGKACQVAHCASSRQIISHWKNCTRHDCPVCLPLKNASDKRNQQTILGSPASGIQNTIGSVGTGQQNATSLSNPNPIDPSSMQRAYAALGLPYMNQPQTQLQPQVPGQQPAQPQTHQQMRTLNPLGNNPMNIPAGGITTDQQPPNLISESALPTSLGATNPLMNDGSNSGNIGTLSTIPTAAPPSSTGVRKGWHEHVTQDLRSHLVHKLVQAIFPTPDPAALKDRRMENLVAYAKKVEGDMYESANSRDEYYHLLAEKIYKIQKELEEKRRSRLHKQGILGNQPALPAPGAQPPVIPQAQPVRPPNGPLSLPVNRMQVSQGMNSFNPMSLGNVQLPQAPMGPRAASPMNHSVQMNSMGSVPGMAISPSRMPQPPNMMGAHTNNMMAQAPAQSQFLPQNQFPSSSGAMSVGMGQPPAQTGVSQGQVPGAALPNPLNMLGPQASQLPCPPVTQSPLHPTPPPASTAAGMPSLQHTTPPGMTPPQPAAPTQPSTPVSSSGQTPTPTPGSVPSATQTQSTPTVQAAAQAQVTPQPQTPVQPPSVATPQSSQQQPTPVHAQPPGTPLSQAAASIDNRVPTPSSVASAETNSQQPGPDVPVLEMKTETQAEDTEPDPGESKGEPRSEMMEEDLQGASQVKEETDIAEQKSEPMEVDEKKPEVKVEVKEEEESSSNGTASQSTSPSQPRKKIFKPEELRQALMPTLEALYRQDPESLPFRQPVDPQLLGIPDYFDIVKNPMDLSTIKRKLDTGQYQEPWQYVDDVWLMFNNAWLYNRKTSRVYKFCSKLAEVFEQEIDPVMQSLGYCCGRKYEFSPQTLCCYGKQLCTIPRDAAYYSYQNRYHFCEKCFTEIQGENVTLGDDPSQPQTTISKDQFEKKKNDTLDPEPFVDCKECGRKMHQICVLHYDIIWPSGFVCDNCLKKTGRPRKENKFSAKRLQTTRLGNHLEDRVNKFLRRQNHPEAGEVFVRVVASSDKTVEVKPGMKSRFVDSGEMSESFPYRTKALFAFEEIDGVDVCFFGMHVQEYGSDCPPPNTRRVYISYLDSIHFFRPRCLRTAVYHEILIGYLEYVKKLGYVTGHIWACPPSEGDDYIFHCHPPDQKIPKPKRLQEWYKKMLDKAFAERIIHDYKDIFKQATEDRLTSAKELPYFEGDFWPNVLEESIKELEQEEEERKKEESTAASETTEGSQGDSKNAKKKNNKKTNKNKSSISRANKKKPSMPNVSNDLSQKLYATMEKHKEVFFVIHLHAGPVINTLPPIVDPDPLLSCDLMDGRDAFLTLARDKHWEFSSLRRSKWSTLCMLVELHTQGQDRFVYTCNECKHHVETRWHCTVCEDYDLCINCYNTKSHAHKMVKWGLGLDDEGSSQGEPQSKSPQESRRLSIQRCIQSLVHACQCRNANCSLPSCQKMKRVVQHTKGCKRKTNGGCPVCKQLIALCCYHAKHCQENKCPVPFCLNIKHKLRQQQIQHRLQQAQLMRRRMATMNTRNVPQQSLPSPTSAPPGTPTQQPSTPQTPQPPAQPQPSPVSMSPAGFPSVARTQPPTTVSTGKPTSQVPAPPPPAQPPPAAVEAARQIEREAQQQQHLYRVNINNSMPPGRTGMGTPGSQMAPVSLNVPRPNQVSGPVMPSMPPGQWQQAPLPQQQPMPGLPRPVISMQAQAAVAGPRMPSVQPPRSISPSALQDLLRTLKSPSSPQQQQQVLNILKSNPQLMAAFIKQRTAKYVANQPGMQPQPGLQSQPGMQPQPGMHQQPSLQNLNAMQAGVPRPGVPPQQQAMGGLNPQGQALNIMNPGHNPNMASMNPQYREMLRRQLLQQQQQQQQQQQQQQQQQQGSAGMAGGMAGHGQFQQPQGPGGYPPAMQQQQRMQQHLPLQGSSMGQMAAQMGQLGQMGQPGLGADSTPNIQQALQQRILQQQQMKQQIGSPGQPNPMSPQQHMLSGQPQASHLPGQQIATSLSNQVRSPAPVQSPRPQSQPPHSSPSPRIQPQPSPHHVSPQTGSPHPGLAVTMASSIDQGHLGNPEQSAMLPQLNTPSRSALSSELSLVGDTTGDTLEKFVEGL
Kind of assay: Acetyl-lysine IP and western blot for BCL6 in SUDHL5. Conditions: SUDHL5, 1 hour. Type of assay: cell-based. On the procedure: Cells were plated at 1M/mL and treated with compound or DMSO at indicated timepoints and doses. Cells were harvested on ice, counted, normalized by count, and washed 1X in PBS containing compound or DMSO. For only BCL6 immunoprecipitation, compound or DMSO was maintained in nuclear preparation buffers at identical concentration to cell treatment throughout. Nuclei were prepared by incubation in Buffer A (25 mM HEPES pH 7.5, 25 mM KCl, 0.05 mM EDTA, 1mM MgCl2, 10% glycerol, 0.1% NP-40) supplemented with protease inhibitors (1 mM PMSF, ~[…] pepstatin, aprotinin, and leupeptin) at 4 °C for 7 mins. Nuclear preparation was confirmed by Trypan blue staining and nuclei were pelleted by centrifugation for 5 min at 500g at 4 °C. Pelleted nuclei were resuspended in IP Buffer (25 mM HEPES pH 7.5, 150mM KCl, 0.05 mM EDTA, 1 mM MgCl2, 10% glycerol, 0.1% NP-40) supplemented with protease inhibitors and 1 μL/250 units benzonase (Sigma E1014). Chromatin was removed by incubation with rotation for 30 min and nuclei sheared using a 27-gauge needle exactly five times. […]
Cells were plated at 1M/mL and treated with drug at indicated timepoints and doses. […] After 10 min centrifugation at 14,000g and 4 °C, the supernatant was collected and protein concentration was measured by Bradford. […] ImageStudio (Licor) was used for blot imaging and quantification.

Assay [4] deals with c-MYC protein. Kind of assay: Western blot of c-MYC protein in SUDHL5. It counts as cell-based, human. The protocol: as §1
For orientation: In western blotting, separated proteins are transferred to a membrane and probed.

Structures are written as SMILES.

The IC50 is the midpoint of a concentration-inhibition curve. In the case of `CNC(=O)COc1cc2cc(Nc3nc(N4CCC(C(=O)N5CCN(CCC(=O)N6CCC(n7nc(N8CCCc9cc(-c%10cnn(C)c%10)c(C(F)F)cc98)c8c7CCN(C(=O)NC)C8)CC6)CC5)CC4)ncc3Cl)cc(OC)c2n(C)c1=O` [TCIP3], the “predominant cellular effect after 24 hours” value in assay [1] is “arrest cells in G1”. In addition, the PUMA expression increase result in assay [2] was “more than 6 fold”. The “concentration at which increase of acetylated BCL6 begins” value in assay [3] was found to be 1 nM. In assay [4] (SUDHL5, 1 nM), the “t1/2 of c-MYC protein decrease” value was found to be 2.5 h. Besides, in assay [4] (SUDHL5, 4 hours, read-out: IC50 of c-MYC protein repression), the IC50 was approximately 0.8 nM.
